Source: US10172869B2, “Progesterone receptor modulators for use in the therapy of uterine fibroids” (PregLem SA, priority 2013, dated 2019)

What was measured:
Format in all cases: in vivo, human
[1] = Example 1 Phase III study: adverse events (TEAEs, SAEs)
Procedure: (§1) Multicenter, Phase III Study to Investigate the Efficacy and Safety of 3-Months of Treatment with UPA Followed by 10 Days of Treatment with NETA or Placebo
(§2) All patients received a 3-month treatment course of UPA 10 mg once-daily followed by randomized oral NETA 10 mg once-daily or matching placebo for 10 days. UPA treatment was started during the first 4 days of menstruation. NETA or placebo was taken daily for the first 10 days following the cessation of UPA. The schedule incorporated the potential for women to enter an extension study involving repeated intermittent courses of UPA 10 mg.
(§3) The safety endpoints included the number and proportion of patients experiencing treatment-emergent adverse events (TEAEs), including clinically significant changes in vital signs, physical examination, gynecological or breast examination, electrocardiogram (ECG), ovarian ultrasound, changes from baseline in endometrial thickness and clinically significant changes in endometrium biopsy. Other safety endpoints were change from baseline in hematology, coagulation, biochemistry, lipids, adrenocorticotropic hormone (ACTH), thyroid stimulating hormone (TSH) and prolactin, as well as serum levels of estradiol (E2).

[2] = system: myomas and heavy uterine bleeding; experiment: Example 2 long-term extension study: pain (SF-MPQ) and quality of life (UFS-QoL, EQ-5D)
Description: (§4) Long-Term Extension of a Multicenter, Phase III Study to Investigate the Efficacy and Safety of 3-Months of Treatment with UPA Followed by 10 Days of Treatment with NETA or Placebo in Subjects with Myomas and Heavy Uterine Bleeding
(§5) The study consisted of three periods of 3 months open-label UPA treatment, each followed by 10 days of double-blind treatment with NETA or placebo and then a drug-free period. Subjects were randomly assigned to a NETA or matching placebo arm with a 1:1 ratio.
(§6) In the study of Example 1 and for each present study courses, UPA 10 mg was orally administered once daily for a period of 90 days, followed by 10 mg NETA or matching placebo once daily for a period of 10 days. The first treatment course in the present study consisted of 90 days UPA 10 mg treatment followed by 10 days of double-blind treatment (same as in Example 1 study) started between the first and fourth day of menstruation (inclusive) following visit after the end of treatment, or one month later if uterine sparing surgery had been performed and myomas were still present. The second and third treatment courses of the present study started on the first day of menstruation following visits after ends of each treatment courses, respectively.
(§7) Parameters assessed are the same as it was described in Example 1.

endometrium [3] = experiment: Example 1 Phase III study: endometrial thickness
Procedure: as §1, §2, §3

endometrium [4] = experiment: Example 1 Phase III study: endometrial histology (biopsy)
Procedure: as §1, §2
(§8) In the clinical trial the effect of treatment of uterine fibroids have been assessed by means of parameters such as uterine bleeding using the pictorial blood-loss assessment chart (PBAC), condition of the uterus using transvaginal ultrasound (TVUS) and endometrial biopsy, endometrial histology using endometrial biopsy and pain using the Short-Form McGill Pain Questionnaire (SF-MPQ and quality of life using the Uterine Fibroid Symptom and Health-Related Quality of Life (UFS-QoL) questionnaire.
as §3
(§9) Exploratory endpoints included assessment of the strength of the first menstruation after UPA treatment (using PBAC), time to return of menstruation following treatment end, and frequency of post-treatment PAEC observed in the endometrial biopsy after return of menstruation.

[5] = system: myomas and heavy uterine bleeding; experiment: Example 2 long-term extension study: uterine bleeding, amenorrhea and return of menstruation (PBAC); details: for subjects with more than 9 days of any level of bleeding (heavy bleeding, bleeding or spotting) / percentage of subjects in amenorrhea: ITT Population; for mean time to amenorrhea / median time to amenorrhea: from first dose of UPA in the course
Description: as §4, §5
In study described in Example 1, 251 subjects were screened at 21 sites and 209 subjects started treatment with UPA of which 202 attended the end of UPA treatment visit. Of those that completed study of Example 1 (190 subjects), 132 subjects from 19 sites opted to continue in to the extension study.
as §6, §7

uterine fibroids [6] = experiment: Example 1 Phase III study: uterine bleeding, amenorrhea and return of menstruation (PBAC)
Procedure: as §1, §2, §8
(§10) The efficacy end points were: percentage of amenorrheic patients at the end of UPA treatment; change from baseline in the volume of the three largest myomas to end of UPA treatment and 2 weeks after menstruation following end of NETA/placebo treatment; and change from baseline in pain and QoL to end of UPA treatment.
as §9

uterine fibroids [7] = experiment: Example 1 Phase III study: volume of the three largest fibroids (TVUS)
Procedure: as §1, §2, §8, §10

uterine fibroids [8] = experiment: Example 1 Phase III study: pain (SF-MPQ, VAS) and quality of life (UFS-QoL); details: for pain assessed by the VAS, median change in score: median baseline 38
Procedure: as §1, §2, §8, §10

endometrium [9] = experiment: Example 2 long-term extension study: endometrium thickness and endometrium biopsy
Description: as §4, §5, §6, §7

[10] = system: myomas and heavy uterine bleeding; experiment: Example 2 long-term extension study: surgery undertaken compared to planned; details: by the end of study; ITT population of 132, surgery initially planned for 66 (50%)
Description: as §4, §5, §6

[11] = Example 1 Phase III study: serum hormones and biochemistry (E2, ACTH, TSH, prolactin, transaminases)
Procedure: as §1, §2, §3

[12] = Example 2 long-term extension study: safety assessments (TEAEs, SAEs); details: intermittent repeated administration schedule
Description: as §4, §5, §6, §7

myomas = experiment: Example 2 long-term extension study: volume of the 3 largest myomas and uterine volume
Description: as §4, §5, §6, §7

[13] = from day 10 until end of treatment
[14] = from first day of menstruation on, or just prior to, first dose of UPA
[15] = follow-up visit, approximately 2 weeks after the third menstruation following 4th treatment course

In the case of `CC(=O)O[C@]1(C(C)=O)CC[C@H]2[C@@H]3CCC4=CC(=O)CCC4=C3[C@@H](c3ccc(N(C)C)cc3)C[C@@]21C` [UPA, 17α-acetoxy-11β[4-N,N-dimethylamino-phenyl)-19-norpregna-4,9-diene-3,20-dione], the “SAE during the UPA treatment phase” value ([1]; UPA treatment phase) is reported as “No SAE occurred”, the “serious adverse events (SAEs) during the study” value ([1]; all post-treatment, considered not related to study medication) is reported as “Three serious adverse events (SAEs) were reported for two patients” and the “TEAE breast discomfort/tenderness, women” value ([1]; during UPA treatment) is reported as 3.8%. For the same compound, the “TEAE fatigue, women” value ([1]; during UPA treatment) was 4.3%, the “TEAE headache, women” value ([1]; during UPA treatment) was 16.3% and the “TEAE hot flushes, women” value ([1]; during UPA treatment) was 4.8%. The “TEAE lower abdominal pain, women” value ([1]; during UPA treatment) was 3.3%, the “TEAE nasopharyngitis, women” value ([1]; during UPA treatment) was 6.7% and the “TEAE nausea, women” value ([1]; during UPA treatment) was 3.8%. The “TEAE pelvic pain, women” value ([1]; during UPA treatment) was 3.8%, the “TEAE vertigo, women” value ([1]; during UPA treatment) was 3.8% and the “TEAEs classified as severe” value ([1]; during UPA treatment) was 3.8%. For the same compound, the “women with TEAEs” value ([1]; during UPA treatment) was 57.4%, the “women with TEAEs considered to be UPA related” value ([1]; during UPA treatment) was 29.7% and the “patient-reported pain, 3 SF-MPQ Parts” value ([2]; all visits) was “improvement from baseline at all visits”. The “UFS-QoL average symptom severity score” value ([2]; compared to baseline) was “improvement (decrease) from baseline”, the “UFS-QoL HRQL total score” value ([2]; on average, compared to baseline) was “improvement (increase)” and the “ED-5D questionnaire, pain/discomfort and anxiety/depression dimensions” value ([2]; throughout the study) was “improvement was sustained throughout the study”. The “percentage of women with endometrial thickness >16 mm” value (endometrium [3]; end of UPA treatment, 1.5% at screening) was 9.1%, the “patients with endometrial thickness >16 mm” value (endometrium [3]; three months later) was “none of the patients assessed had a thickness >16 mm” and the “percentage of non-physiological endometrial features” value (endometrium [4]; after treatment, 10.9% at screening) was 25.6%. The endometrial histology (endometrium [4]; biopsy 12 weeks after UPA treatment (n=38)) was “benign endometrial histology in all biopsies”, the endometrial histology (endometrium [4]; following double-blind treatment) was “benign in all cases” and the “subjects with more than 9 days of any level of bleeding (heavy bleeding, bleeding or spotting)” value (“subjects with more than 9 days” below) ([5]; days 9-90, treatment course 1) was 15.9%. The “subjects with more than 9 days” value ([5]; days 9-90, treatment course 2) was 6.3%, the “subjects with more than 9 days” value ([5]; days 9-90, treatment course 3) was 3.4% and the “subjects with more than 9 days” value ([5]; days 9-90, treatment course 4) was 3.9%. The “percentage of subjects in amenorrhea” value ([5]; end of treatment course 1) was 79.5%, the “percentage of subjects in amenorrhea” value ([5]; end of treatment course 2) was 88.5% and the “percentage of subjects in amenorrhea” value ([5]; end of treatment course 3) was 88.2%. For the same compound, the “percentage of subjects in amenorrhea” value ([5]; end of treatment course 4) was 89.7%, the return to menstruation ([5]; following the end of each treatment course) was “al but 4 subjects with available data returned to menstruation” and the “mean time to amenorrhea” value ([5]; treatment course 1) was 9.4 days. The “median time to amenorrhea” value ([5]; treatment course 1) was 4.0 days, the “mean time to amenorrhea” value ([5]; treatment course 2) was 3.3 days and the “median time to amenorrhea” value ([5]; treatment course 2) was 2.0 days. The “mean time to amenorrhea” value ([5]; treatment course 3) was 5.3 days, the “median time to amenorrhea” value ([5]; treatment course 3) was 3.0 days and the “mean time to amenorrhea” value ([5]; treatment course 4) was 4.2 days. The “median time to amenorrhea” value ([5]; treatment course 4) was 3.0 days, the “percentage of amenorrheic patients” value (uterine fibroids [6]; end of 3-month UPA 10 mg once-daily treatment) was 78.5% and the “overall total median change in PBAC score” value (uterine fibroids [6]; first menstruation following treatment completion compared to baseline, median baseline score 216) was −91.5. The “patients on any particular day reporting any bleeding” value (uterine fibroids [6]; [13]) was < 5%, the “patients on any particular day reporting heavy bleeding” value (uterine fibroids [6]; [13]) was < 2% and the “mean time to amenorrhea” value (uterine fibroids [6]; [14]) was 10.6 days. For the same compound, the “median time to amenorrhea” value (uterine fibroids [6]; [14]) was 5.0 days, the “median change in the combined volume of the largest three fibroids” value (uterine fibroids [7]; after UPA treatment and return of menstruation) was −45.8% and the “median change in the combined volume of the largest three fibroids” value (uterine fibroids [7]; between baseline and end of UPA treatment) was −45.1%. The “women with a ≥25% reduction in the volume of the three largest fibroids” value (uterine fibroids [7]; in vivo) was 74.7%, the “pain, median change from baseline score” value (uterine fibroids [8]; Week 5) was −5.0 and the “pain assessed by the VAS, median change in score” value (uterine fibroids [8]; Week 5) was −21. The “pain, median change from baseline score” value (uterine fibroids [8]; Week 9) was −6.0, the “pain assessed by the VAS, median change in score” value (uterine fibroids [8]; Week 9) was −26 and the “QoL symptom severity, median change from baseline score” value (uterine fibroids [8]; after UPA treatment) was −34.4. For the same compound, the “health-related QoL (HRQL) total score, median increase compared to baseline” value (uterine fibroids [8]; after UPA treatment) was 28.5, the “pain, median change from baseline score” value (uterine fibroids [8]; end of UPA treatment) was −6.0 and the “pain assessed by the VAS, median change in score” value (uterine fibroids [8]; end of UPA treatment) was −25. The “endometrium biopsy diagnosis by consensus review” value (endometrium [9]; all biopsy samples, 3 independent pathologists) was “diagnosis of benign endometrium”, the “incidence of non-physiological changes in endometrium biopsy samples” value (endometrium [9]; epithelial changes, unusual vascular changes, extensive cyst formation) was “highest in samples taken following first treatment course and second treatment course” and the endometrium thickness (endometrium [9]; following a single treatment course of 3 months UPA) was “an increase in endometrium thickness was observed”. For the same compound, the “frequency of PAEC” value (endometrium [9]; long-term repeated administration) was “independent of length of treatment”, the “subjects for whom surgery was not performed” value [10] was 94.7% and the “mean E2 level” value ([11]; Visit 5, during UPA treatment, screening mean 149.9 pg/mL) was 81.6 pg/mL. The “median E2 level” value ([11]; Visit 5, during UPA treatment, screening median 120.0 pg/mL) was 55.0 pg/mL, the “changes in ACTH, TSH, or prolactin” value ([11]; during UPA treatment) was “No significant changes” and the hepatic transaminases ([11]; small number of patients, all resolved during continued treatment and/or by follow-up visit) was “marginal increase”. The “safety and tolerability assessment” value [12] was “well tolerated”, the “uterine volume measured by US” value (myomas; during the study, maintained after end of treatment) was “decreased during the study” and the “total volume of the 3 largest myomas, mean percent change from screening” value (myomas; end of 4th treatment course) was −53.53%. The “total volume of the 3 largest myomas, median percent change from screening” value (myomas; end of 4th treatment course) was −72.08%, the “total volume of the 3 largest myomas, mean percent change from screening” value (myomas; [15]) was −33.68% and the “total volume of the 3 largest myomas, median percent change from screening” value (myomas; [15]) was −58.84%.
